# Assay results published in patent US20060094002A1 (priority 2002, published 2006).
# Tested on: Aspergillus (A. nidulans, A. niger, A. awamori)
# Test: Effect of known antifungal drugs on [Ca2+]c in different Aspergillus species
# Format: cell-based
# Settings: FIGS. 22a, b
# Description: Procedure: • The fungus can be either transformed with the recombinant aequorin gene or can be injected with the active aequorin. • Then this fungus can be subjected to a range of the antifungal drugs, profiles of which have already been created. • Obtained profiles can be compared with the library of the fingerprints and this way the fungal species can be identified.
row,SMILES,[Ca^2+]c response in 3 different species of Aspergillus
1,C[C@@H]1[C@H](O)[C@@H](C)/C=C/C=C/C=C/C=C/C=C/C=C/C=C/[C@H](O[C@@H]2O[C@H](C)[C@@H](O)[C@H](N)[C@@H]2O)C[C@@H]2O[C@](O)(C[C@@H](O)C[C@@H](O)[C@H](O)CC[C@@H](O)C[C@@H](O)CC(=O)O[C@H]1C)C[C@H](O)[C@H]2C(=O)O [amphotericin B],caused a different [Ca^2+]c response
2,Clc1ccccc1C(c1ccccc1)(c1ccccc1)n1ccnc1 [clotrimazole],caused a different [Ca^2+]c response
3,CCCCC[C@@H](O)[C@H]1C(=O)O[C@H](C)[C@@H](O)/C=C/C=C/C=C/C=C/C=C(\C)[C@@H](O)C[C@H](O)C[C@H](O)C[C@H](O)C[C@H](O)C[C@H](O)C[C@@H]1O [filipin],caused a different [Ca^2+]c response
4,CC(=O)N1CCN(c2ccc(OCC3COC(Cn4ccnc4)(c4ccc(Cl)cc4Cl)O3)cc2)CC1 (centres unmarked) [ketoconazole],caused a different [Ca^2+]c response
5,C[C@@H]1[C@H](O)[C@@H](C)/C=C/C=C/CC/C=C/C=C/C=C/C=C/C(O[C@H]2O[C@H](C)[C@@H](O)[C@H](N)[C@@H]2O)CC2O[C@](O)(CC(O)C(O)CCC(O)CC(O)CC(O)CC(=O)O[C@H]1C)CC(O)C2C(=O)O (some centres unmarked) [nystatin],caused a different [Ca^2+]c response
